Test results from patent US8883841B2, “Oncogenic ras-specific cytotoxic compound and methods of use thereof” (The Board of Regents of the University of Texas System, priority 2005, dated 2014).

What was measured:
[1] = tested on: TNFα-mediated NFκB activation; experiment: Electrophoretic mobility shift assay (EMSA) of NFκB activity; assay type: cell-based, human; conditions: 12 h, TNFα 1 ng/ml
Experimental: FIGS. 11A-11C Suppression of TNFα-induced NFκB activation. NKκB reporter plasmid assay. T29K cells were transfected with pNFκB-Luc and pCMV-lacZ. 12 h later, the cells were treated with TNFα (1 ng/ml) with or without (FIG. 11A) Oncrasin-1 (10 μM) or (FIG. 11B) Sulindac (10 μm). The luciferase activity was determined at 8 h after the treatment and normalized with beta-gal activity. (FIG. 11C) H460 and T29K cells were treated with DMSO or different concentrations of Oncrasin-1 as indicated for 12 h, with or without TNFα (1 ng/ml). The NFκB activity was analyzed by EMSA.
Suppression of NFκB. In a separated study, the effect of Oncrasin compounds on NF-κB activity was assessed. Nuclear factor-κB (NF-κB)/Rel represents a group of structurally related and evolutionarily conserved transcriptional factors that play critical roles in chronic and acute inflammatory diseases, autoimmune diseases and various type of cancers (Karin and Neriah, 2000; Karin and Karin, 2006; Barnes et al., 1997). In unstimulated cells, most NF-κB/Rel dimers are bound to IκBs and retained in the cytoplasm. Upon a various stimulations, IκBs are phosphorylated and rapidly degraded, releasing NF-κB, which then enters the nucleus and executes transcriptional functions. […] The luciferase activity was determined and normalized for transfection with beta-galactosidase activity. […]

Akt = experiment: Western blot analysis of Akt; assay type: cell-based, human; conditions: 1 μM, 12 h
Experimental: Ras Signaling Pathway and Molecular Mechanisms of Oncrasin-induced apoptosis. To investigate molecular mechanisms of apoptosis induction by Oncrasin compounds, levels several proteins that are involved in apoptosis and/or involved in Ras signaling pathways were determined, including Bax, Bik, Bc12, Bcl-XL, Raf-1, B-Raf, Akt, Mst1 and atypical protein kinase C (aPKC) zeta and PKCiota. To study which molecules are affected by Oncrasin treatment, T29, T29Kt1 and H460 cells were treated with Oncrasin-1 at an optimal concentration, around IC60 to IC80 for T29Kt1 and H460 cells. Cell lysates were collected 12 h after the treatment and subjected to Western blot analysis.

Raf-1 mRNA = experiment: RT-PCR analysis of Raf-1 mRNA in H460 cells; assay type: cell-based, human
Experimental: FIGS. 10A-10D Effect of Oncrasin-1 on Raf-1 expression. (FIG. 10A) H460 cells were treated with various concentrations of Oncrasin-1 and harvested 24 h later for Western blot analysis. (FIG. 10B) Reverse transcriptase-based polymerase chain reaction (RT-PCR) assay. H460 cells treated with 1 μM Oncrasin-1 for various times or at various concentrations for 24 h, as indicated. (+, −, positive and negative controls). […] (FIG. 10D) Dose effects of Oncrasin-1 on stable cell lines transfected with Raf-1 plasmids. Parental H460 cells and H460 cells transfected with wild-type Raf-1 (Raf-1), constitutive Raf-1 (Raf-1C), or dominant-negative Raf-1 Raf-1/DN) were treated with various concentrations of Oncrasin-1, and cell viability was determined by SRB assay.
Suppression of Raf-1 expression by Oncrasin-1. […] To elucidate the roles of Raf-1 in Oncrasin-induced apoptosis, the inventors evaluated the expression of Raf-1 in H460 cells after treatment with different concentrations of Oncrasin-1. […] Because Raf-1 executes anti-apoptosis function via a variety of pathways. […] However, the resistance to Oncrasin-1 was more prominent in the constitutively active Raf-1-transfected cells than in cells with the wild-type Raf-1 (FIG. 10C and FIG. 10D).

Rad51 = experiment: Antibody staining, subcellular localization of Rad51; assay type: cell-based, human; conditions: T29Kt1 cells
Excerpt: (§1) Effects on RNA spliceosome. To investigate the nature of this PKCiota aggregates in the nucleus, the effect of Oncrasin-1 on SC35, a protein required for RNA splicing and assembly of spliceosome (Fu et al., 1992; Vellard et al., 1992), and on Rad51, a homologous DNA recombinase that involves in DNA repair (Benson et al., 1994; Baumann et al., 1996) were studied. […] and DNA repairing are the two important functions executed in the nucleus. In untreated or DMSO-treated cells, SC35 was localized in nucleus as speckles, either diffusely distributed or concentrated as granule clusters (Mistele et al., 1997), whereas Rad51 was more uniformly distributed inside the nucleus. […] This aggregation of SC35 was not observed in Oncrasin resistant T29 cells upon the treatment with Oncrasin-1. […] The effects of Oncrasin on another spliceosome protein, alternative splicing factor/splicing factor 2 (ASF/SF2), was studied (Krainer et al., 1991). […] In the resistant T29 cells, however, such an aggregation is not observed (FIG. 8C).

SC35 = experiment: Antibody staining, subcellular localization of SC35 (spliceosome); assay type: cell-based, human
Excerpt: as §1

T29Kt1 cells = experiment: cells; conditions: Homo sapiens, T29Kt1, read-out: IC50 in T29k cells, Table 1

Row | SMILES | concentration that effectively suppresses TNFα-mediated NFκB activation, H460 cells [1] [µM] | concentration that effectively suppresses TNFα-mediated NFκB activation, T29Kt1 cells [1] [µM] | Akt level in H460 cells (Akt) | Raf-1 mRNA level (Raf-1 mRNA) | effect on Rad51 (Rad51) | SC35 localization, T29Kt1 cells (SC35) | SC35 aggregation, T29 cells (SC35; Oncrasin resistant cells) | IC50 (T29Kt1 cells) [µM]
1 | O=Cc1cn(Cc2ccc(Cl)cc2)c2ccccc12 [Oncrasin K001, 1H-Indole-3-carboxaldehyde, 1-[(4-chlorophenyl)methyl]-(9CI)] | ≥ 1 | ≥ 1 | down regulation | decreased in a dose- and time-dependent fashion | no obvious effect | aggregation of SC35 into several large foci | not observed | –
2 | OCc1cn(Cc2ccc(Cl)cc2)c2ccccc12 [Oncrasin K060, 1H-Indole-3-methanol, 1-[(4-chlorophenyl)methyl]-] | – | – | – | – | – | – | – | 0.0794
